Reference: publication PMC6230393, “Enhancing TFEB-Mediated Cellular Degradation Pathways by the mTORC1 Inhibitor Quercetin” (Oxidative Medicine and Cellular Longevity, 2018)

Biological target: mTOR (Homo sapiens, UniProt P42345)
Assay: LanthaScreen TR-FRET in vitro kinase assay, purified mTOR (PV4753), GFP-4E-BP1 substrate, […] ATP, […] MnCl2
Assay type: biochemical

**Q.** `O=c1c(O)c(-c2ccc(O)c(O)c2)oc2cc(O)cc(O)c12` [quercetin, 3,3′,4′,5,7-pentahydroxyflavone] was tested. Which IC50 did it give?
**A.** 7.8 µM
